Laboratory results reported in PubChem BioAssay AID1918937 (Molecular Pharmacology Branch, DTP, NCI, 2023).
Values joined by “and” are separate entries in the source; they are usually repeats but may differ in a detail not shown here. Equal entries are not always repeated.

Tested on: 521955-158-R2-J5-PDC complex spheroid viability
Experiment: Anticancer human tumor 521955-158-R2-J5-PDC patient-derived pancreatic carcinoma cell line growth inhibition
Conditions: for viability, T/C: stronger effect = lower value
Outline: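 Drug combinations with the LSD1 inhibitor iadademstat tested on tumor cells co-cultured as spheroids with endothelial cells and mesenchymal stem cells. Concentrations descended in half-log increments from clinical Cmax or 10 microM.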

[1] = curve of first compound, second compound 0.1 µM
[2] = curve of first compound, second compound 0.316 µM
[3] = curve of first compound, second compound 1 µM
[4] = curve of first compound, second compound 3.16 µM
[5] = curve of first compound, second compound 10 µM
[6] = second compound 0.1 µM, first compound 0.00949 µM
[7] = second compound 0.1 µM, first compound 0.03 µM
[8] = second compound 0.1 µM, first compound 0.0949 µM
[9] = second compound 0.1 µM, first compound 0.3 µM
[10] = second compound 0.1 µM, first compound 0.949 µM
[11] = second compound 0.1 µM, first compound 3 µM
[12] = second compound 0.316 µM, first compound 0.00949 µM
[13] = second compound 0.316 µM, first compound 0.03 µM
[14] = second compound 0.316 µM, first compound 0.0949 µM
[15] = second compound 0.316 µM, first compound 0.3 µM
[16] = second compound 0.316 µM, first compound 0.949 µM
[17] = second compound 0.316 µM, first compound 3 µM
[18] = second compound 1 µM, first compound 0.00949 µM
[19] = second compound 1 µM, first compound 0.03 µM
[20] = second compound 1 µM, first compound 0.0949 µM
[21] = second compound 1 µM, first compound 0.3 µM
[22] = second compound 1 µM, first compound 0.949 µM
[23] = second compound 1 µM, first compound 3 µM
[24] = second compound 3.16 µM, first compound 0.00949 µM
[25] = second compound 3.16 µM, first compound 0.03 µM
[26] = second compound 3.16 µM, first compound 0.0949 µM
[27] = second compound 3.16 µM, first compound 0.3 µM
[28] = second compound 3.16 µM, first compound 0.949 µM
[29] = second compound 3.16 µM, first compound 3 µM
[30] = second compound 10 µM, first compound 0.00949 µM
[31] = second compound 10 µM, first compound 0.03 µM
[32] = second compound 10 µM, first compound 0.0949 µM
[33] = second compound 10 µM, first compound 0.3 µM
[34] = second compound 10 µM, first compound 0.949 µM
[35] = second compound 10 µM, first compound 3 µM
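Also: spheroids exposed to agents for seven days.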
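For viability, T/C in this document: percent of DMSO vehicle control luminescence viability.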

CC(C)CC(NC(=O)CNC(=O)c1cc(Cl)ccc1Cl)B1OC(=O)CC(CC(=O)O)(C(=O)O)O1 (centres undefined)
viability, T/C (compound 0.000316 µM): 107% and 105%
viability, T/C (compound 0.001 µM): 106%
viability, T/C (compound 0.00316 µM): 82.2% and 97.3%
viability, T/C (compound 0.01 µM): 7.33% and 16.1%
viability, T/C (compound 0.0316 µM): 0.46% and 1.77%
viability, T/C (compound 0.1 µM): 0.41% and 0.54%
IC50 (curve of compound): 5.19 nM and 6.18 nM

NS(=O)(=O)OCC1CC(n2ccc3c(NC4CCc5ccccc54)ncnc32)CC1O (centres undefined)
viability, T/C (compound 0.00949 µM): 79% and 92.2%
viability, T/C (compound 0.03 µM): 51.8% and 75%
viability, T/C (compound 0.0949 µM): 24.6% and 38.1%
viability, T/C (compound 0.3 µM): 16.3% and 20.5%
viability, T/C (compound 0.949 µM): 14.1% and 15.6%
viability, T/C (compound 3 µM): 9.5% and 9.51%
IC50 (curve of compound): 31.9 nM and 67 nM

COc1cc(Nc2ncc3c(n2)-c2ccc(Cl)cc2C(c2c(F)cccc2OC)=NC3)ccc1C(=O)O
viability, T/C (compound 0.00316 µM): 46.9% and 75.9%
viability, T/C (compound 0.01 µM): 56.3% and 81.6%
viability, T/C (compound 0.0316 µM): 57.4% and 74.7%
viability, T/C (compound 0.1 µM): 46.7% and 67.2%
viability, T/C (compound 0.316 µM): 49% and 61.8%
viability, T/C (compound 1 µM): 42% and 61.7%
IC50 (curve of compound): 154 nM and > 1000 nM

COc1cc(C2c3cc4c(cc3C(OC3OC5COC(C)OC5C(O)C3O)C3COC(=O)C23)OCO4)cc(OC)c1O (centres undefined) + NC1CCC(NC2CC2c2ccccc2)CC1
IC50 [1]: 71.4 nM
IC50 [2]: 76.7 nM
IC50 [3]: 59.8 nM
IC50 [4]: 79.1 nM
IC50 [5]: 72.2 nM
viability, T/C [6]: 106%
viability, T/C [7]: 92.6%
viability, T/C [8]: 35.4%
viability, T/C [9]: 15.4%
viability, T/C [10]: 9.48%
viability, T/C [11]: 7.12%
viability, T/C [12]: 102%
viability, T/C [13]: 88.5%
viability, T/C [14]: 40.6%
viability, T/C [15]: 15.8%
viability, T/C [16]: 10.4%
viability, T/C [17]: 6.65%
viability, T/C [18]: 93.3%
viability, T/C [19]: 77.7%
viability, T/C [20]: 30.6%
viability, T/C [21]: 16.2%
viability, T/C [22]: 8.2%
viability, T/C [23]: 6.77%
viability, T/C [24]: 96.6%
viability, T/C [25]: 91.3%
viability, T/C [26]: 41.2%
viability, T/C [27]: 17.7%
viability, T/C [28]: 9.09%
viability, T/C [29]: 7.34%
viability, T/C [30]: 99.4%
viability, T/C [31]: 94.4%
viability, T/C [32]: 35.6%
viability, T/C [33]: 18%
viability, T/C [34]: 7.96%
viability, T/C [35]: 6.31%

Nc1ccn(C2OC(CO)C(O)C2(F)F)c(=O)n1 (centres undefined) + NC1CCC(NC2CC2c2ccccc2)CC1
IC50 [1]: 50.9 nM
IC50 [2]: 55.5 nM
IC50 [3]: 56.2 nM
IC50 [4]: 50.1 nM
IC50 [5]: 43.5 nM
viability, T/C (second compound 0.1 µM, first compound 0.000949 µM): 105%
viability, T/C (second compound 0.1 µM, first compound 0.003 µM): 104%
viability, T/C [6]: 96.8%
viability, T/C [7]: 68.4%
viability, T/C [8]: 28.4%
viability, T/C [9]: 16.3%
viability, T/C (second compound 0.316 µM, first compound 0.000949 µM): 105%
viability, T/C (second compound 0.316 µM, first compound 0.003 µM): 98.8%
viability, T/C [12]: 96.2%
viability, T/C [13]: 79.7%
viability, T/C [14]: 24.2%
viability, T/C [15]: 11.2%
viability, T/C (second compound 1 µM, first compound 0.000949 µM): 95.3%
viability, T/C (second compound 1 µM, first compound 0.003 µM): 97.2%
viability, T/C [18]: 90.1%
viability, T/C [19]: 74.8%
viability, T/C [20]: 29.5%
viability, T/C [21]: 12.6%
viability, T/C (second compound 3.16 µM, first compound 0.000949 µM): 104%
viability, T/C (second compound 3.16 µM, first compound 0.003 µM): 96.6%
viability, T/C [24]: 82.6%
viability, T/C [25]: 69.5%
viability, T/C [26]: 28.8%
viability, T/C [27]: 12.8%
viability, T/C (second compound 10 µM, first compound 0.000949 µM): 101%
viability, T/C (second compound 10 µM, first compound 0.003 µM): 98%
viability, T/C [30]: 83.7%
viability, T/C [31]: 63.2%
viability, T/C [32]: 26%
viability, T/C [33]: 10.4%

CC(C)c1c(-c2ccccc2)nc2c(C#N)c[nH]n2c1=O
viability, T/C (compound 0.0316 µM): 104% and 98.1%
viability, T/C (compound 0.1 µM): 108% and 97.9%
viability, T/C (compound 0.316 µM): 105% and 104%
viability, T/C (compound 1 µM): 101% and 86.4%
viability, T/C (compound 3.16 µM): 102% and 94.2%
viability, T/C (compound 10 µM): 86.5% and 85.9%
IC50 (curve of compound): > 10000 nM

CC(C)CC(NC(=O)CNC(=O)c1cc(Cl)ccc1Cl)B1OC(=O)CC(CC(=O)O)(C(=O)O)O1 (centres undefined) + NC1CC1c1ccc(-c2cccc(O)c2)cc1
IC50 [1]: 5.71 nM
IC50 [2]: 5.63 nM
IC50 [3]: 5.49 nM
IC50 [4]: 5.37 nM
IC50 [5]: 4.75 nM
viability, T/C (second compound 0.1 µM, first compound 0.000316 µM): 83.1%
viability, T/C (second compound 0.1 µM, first compound 0.001 µM): 91.7%
viability, T/C (second compound 0.1 µM, first compound 0.00316 µM): 86.8%
viability, T/C (second compound 0.1 µM, first compound 0.01 µM): 15.1%
viability, T/C (second compound 0.1 µM, first compound 0.0316 µM): 0.96%
viability, T/C (second compound 0.1 µM, first compound 0.1 µM): 0.46%
viability, T/C (second compound 0.316 µM, first compound 0.000316 µM): 73.4%
viability, T/C (second compound 0.316 µM, first compound 0.001 µM): 90.5%
viability, T/C (second compound 0.316 µM, first compound 0.00316 µM): 89.2%
viability, T/C (second compound 0.316 µM, first compound 0.01 µM): 15.8%
viability, T/C (second compound 0.316 µM, first compound 0.0316 µM): 0.53%
viability, T/C (second compound 0.316 µM, first compound 0.1 µM): 0.18%
viability, T/C (second compound 1 µM, first compound 0.000316 µM): 81.3%
viability, T/C (second compound 1 µM, first compound 0.001 µM): 83.6%
viability, T/C (second compound 1 µM, first compound 0.00316 µM): 87.3%
viability, T/C (second compound 1 µM, first compound 0.01 µM): 13%
viability, T/C (second compound 1 µM, first compound 0.0316 µM): 0.98%
viability, T/C (second compound 1 µM, first compound 0.1 µM): 0.23%
viability, T/C (second compound 3.16 µM, first compound 0.000316 µM): 76.3%
viability, T/C (second compound 3.16 µM, first compound 0.001 µM): 86.2%
viability, T/C (second compound 3.16 µM, first compound 0.00316 µM): 83.8%
viability, T/C (second compound 3.16 µM, first compound 0.01 µM): 12.3%
viability, T/C (second compound 3.16 µM, first compound 0.0316 µM): 0.68%
viability, T/C (second compound 3.16 µM, first compound 0.1 µM): 0.23%
viability, T/C (second compound 10 µM, first compound 0.000316 µM): 87.6%
viability, T/C (second compound 10 µM, first compound 0.001 µM): 93.7%
viability, T/C (second compound 10 µM, first compound 0.00316 µM): 72.7%
viability, T/C (second compound 10 µM, first compound 0.01 µM): 8.29%
viability, T/C (second compound 10 µM, first compound 0.0316 µM): 0.39%
viability, T/C (second compound 10 µM, first compound 0.1 µM): 0.24%

NS(=O)(=O)OCC1CC(n2ccc3c(NC4CCc5ccccc54)ncnc32)CC1O (centres undefined) + NC1CC1c1ccc(-c2cccc(O)c2)cc1
IC50 [1]: 66.1 nM
IC50 [2]: 62.9 nM
IC50 [3]: 52.8 nM
IC50 [4]: 54.3 nM
IC50 [5]: 40.8 nM
viability, T/C [6]: 96.4%
viability, T/C [7]: 72.8%
viability, T/C [8]: 38.5%
viability, T/C [9]: 22.4%
viability, T/C [10]: 16.1%
viability, T/C [11]: 11%
viability, T/C [12]: 117%
viability, T/C [13]: 71.1%
viability, T/C [14]: 38.3%
viability, T/C [15]: 21.7%
viability, T/C [16]: 17.4%
viability, T/C [17]: 12.3%
viability, T/C [18]: 111%
viability, T/C [19]: 62.5%
viability, T/C [20]: 37.6%
viability, T/C [21]: 21.2%
viability, T/C [22]: 16.7%
viability, T/C [23]: 11.5%
viability, T/C [24]: 120%
viability, T/C [25]: 63.6%
viability, T/C [26]: 38.1%
viability, T/C [27]: 21.3%
viability, T/C [28]: 17.7%
viability, T/C [29]: 14.1%
viability, T/C [30]: 83.7%
viability, T/C [31]: 54.5%
viability, T/C [32]: 37.5%
viability, T/C [33]: 23.9%
viability, T/C [34]: 21%
viability, T/C [35]: 16%

O=C(C=Cn1cnc(-c2cc(C(F)(F)F)cc(C(F)(F)F)c2)n1)NNc1cnccn1
viability, T/C (compound 0.00316 µM): 44% and 57%
viability, T/C (compound 0.01 µM): 36.4% and 61.1%
viability, T/C (compound 0.0316 µM): 40.2% and 68%
viability, T/C (compound 0.1 µM): 31.9% and 73.8%
viability, T/C (compound 0.316 µM): 15.7% and 36.3%
viability, T/C (compound 1 µM): 11.8% and 16.6%
